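Tested at 5 concentrations; 48 h exposure; 96-well plates; endpoints linearly interpolated, else capped at highest concentration. TGI is the concentration that stops growth completely.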
Experiments:
Assay in all cases: inhibition of tumour cell growth, NCI panel, 48 h
HS 578T breast = tested on: HS 578T breast
KM12 colon = tested on: KM12 colon
MDA-N = tested on: MDA-N
UACC-257 melanoma = tested on: UACC-257 melanoma
A549 NSCLC = tested on: A549 NSCLC
NCI-H522 lung = tested on: NCI-H522 lung
OVCAR-5 ovarian = tested on: OVCAR-5 ovarian
BT-549 breast = tested on: BT-549 breast
RPMI-8226 leukemia = tested on: RPMI-8226 leukemia
IGROV1 ovarian = tested on: IGROV1 ovarian
NCI-H460 lung = tested on: NCI-H460 lung
SF-295 CNS = tested on: SF-295 CNS
U251 CNS = tested on: U251 CNS
SN12C renal = tested on: SN12C renal
UACC-62 melanoma = tested on: UACC-62 melanoma
HOP-92 NSCLC = tested on: HOP-92 NSCLC
NCI-H23 lung = tested on: NCI-H23 lung
SK-OV-3 ovarian = tested on: SK-OV-3 ovarian
ACHN renal = tested on: ACHN renal
CAKI-1 renal = tested on: CAKI-1 renal
NCI/ADR-RES ovarian = tested on: NCI/ADR-RES ovarian
TK-10 renal = tested on: TK-10 renal
SR leukemia = tested on: SR leukemia
MALME-3M melanoma = tested on: MALME-3M melanoma
MOLT-4 leukemia = tested on: MOLT-4 leukemia
HCT-15 colon = tested on: HCT-15 colon
HCC-2998 colon = tested on: HCC-2998 colon
EKVX NSCLC = tested on: EKVX NSCLC
LOX IMVI melanoma = tested on: LOX IMVI melanoma
RXF 393 renal = tested on: RXF 393 renal
A498 renal = tested on: A498 renal
786-0 renal = tested on: 786-0 renal
K-562 leukemia = tested on: K-562 leukemia
M14 melanoma = tested on: M14 melanoma
HT29 colon = tested on: HT29 colon
HL-60(TB) leukemia = tested on: HL-60(TB) leukemia
SK-MEL-5 melanoma = tested on: SK-MEL-5 melanoma
NCI-H226 lung = tested on: NCI-H226 lung
CCRF-CEM leukemia = tested on: CCRF-CEM leukemia
SNB-19 CNS = tested on: SNB-19 CNS
COLO 205 colon = tested on: COLO 205 colon
OVCAR-3 ovarian = tested on: OVCAR-3 ovarian
OVCAR-4 ovarian = tested on: OVCAR-4 ovarian
HCT-116 colon = tested on: HCT-116 colon
MDA-MB-435 = tested on: MDA-MB-435
DU-145 prostate = tested on: DU-145 prostate
SF-539 CNS = tested on: SF-539 CNS
SW-620 colon = tested on: SW-620 colon
UO-31 renal = tested on: UO-31 renal
SK-MEL-28 melanoma = tested on: SK-MEL-28 melanoma
MCF7 breast = tested on: MCF7 breast
OVCAR-8 ovarian = tested on: OVCAR-8 ovarian
MDA-MB-231 breast = tested on: MDA-MB-231 breast
T-47D breast = tested on: T-47D breast
SK-MEL-2 melanoma = tested on: SK-MEL-2 melanoma
HOP-62 NSCLC = tested on: HOP-62 NSCLC
SNB-75 CNS = tested on: SNB-75 CNS
PC-3 prostate = tested on: PC-3 prostate

## CCOC(=O)[C@H](Cc1ccc(O)cc1)N=C1[C@H]2CCC[C@]1(O)[C@@](C)([N+](=O)[O-])C2
HS 578T breast
  TGI: > 100 µM
KM12 colon
  TGI: > 100 µM
MDA-N
  TGI: > 100 µM
UACC-257 melanoma
  TGI: > 100 µM
A549 NSCLC
  TGI: > 100 µM
NCI-H522 lung
  TGI: > 100 µM
OVCAR-5 ovarian
  TGI: > 100 µM
BT-549 breast
  TGI: > 100 µM
RPMI-8226 leukemia
  TGI: > 100 µM
IGROV1 ovarian
  TGI: > 100 µM
NCI-H460 lung
  TGI: > 100 µM
SF-295 CNS
  TGI: > 100 µM
U251 CNS
  TGI: > 100 µM
SN12C renal
  TGI: > 100 µM
UACC-62 melanoma
  TGI: > 100 µM
HOP-92 NSCLC
  TGI: > 100 µM
NCI-H23 lung
  TGI: > 100 µM
SK-OV-3 ovarian
  TGI: > 100 µM
ACHN renal
  TGI: > 100 µM
CAKI-1 renal
  TGI: > 100 µM
NCI/ADR-RES ovarian
  TGI: > 100 µM
TK-10 renal
  TGI: > 100 µM
SR leukemia
  TGI: > 100 µM
MALME-3M melanoma
  TGI: > 100 µM
MOLT-4 leukemia
  TGI: > 100 µM
HCT-15 colon
  TGI: > 100 µM
HCC-2998 colon
  TGI: > 100 µM
EKVX NSCLC
  TGI: > 100 µM
LOX IMVI melanoma
  TGI: > 100 µM
RXF 393 renal
  TGI: > 100 µM
A498 renal
  TGI: > 100 µM
786-0 renal
  TGI: > 100 µM
K-562 leukemia
  TGI: > 100 µM
M14 melanoma
  TGI: > 100 µM
HT29 colon
  TGI: > 100 µM
HL-60(TB) leukemia
  TGI: > 100 µM
SK-MEL-5 melanoma
  TGI: > 100 µM
NCI-H226 lung
  TGI: > 100 µM
CCRF-CEM leukemia
  TGI: > 100 µM
SNB-19 CNS
  TGI: > 100 µM
COLO 205 colon
  TGI: > 100 µM
OVCAR-3 ovarian
  TGI: > 100 µM
OVCAR-4 ovarian
  TGI: > 100 µM
HCT-116 colon
  TGI: > 100 µM
MDA-MB-435
  TGI: > 100 µM
DU-145 prostate
  TGI: > 100 µM
SF-539 CNS
  TGI: > 100 µM
SW-620 colon
  TGI: > 100 µM
UO-31 renal
  TGI: > 100 µM
SK-MEL-28 melanoma
  TGI: > 100 µM
MCF7 breast
  TGI: > 100 µM
OVCAR-8 ovarian
  TGI: > 100 µM

## CN(CCCNC(=O)c1nn(-c2ccc(Cl)cc2Cl)c2c1Cc1ccccc1-2)CCCNC(=O)c1nn(-c2ccc(Cl)cc2Cl)c2c1Cc1ccccc1-2
KM12 colon
  TGI: 4.01 µM
MDA-N
  TGI: 3.17 µM
UACC-257 melanoma
  TGI: 3.35 µM
A549 NSCLC
  TGI: 3.64 µM
MDA-MB-231 breast
  TGI: 3.18 µM
NCI-H522 lung
  TGI: 2.9 µM
OVCAR-5 ovarian
  TGI: 2.98 µM
BT-549 breast
  TGI: 3.18 µM
RPMI-8226 leukemia
  TGI: 3 µM
NCI-H460 lung
  TGI: 3.19 µM
SF-295 CNS
  TGI: 3.15 µM
U251 CNS
  TGI: 3.1 µM
SN12C renal
  TGI: 3.04 µM
UACC-62 melanoma
  TGI: 2.92 µM
HOP-92 NSCLC
  TGI: 3.06 µM
T-47D breast
  TGI: 3.76 µM
NCI-H23 lung
  TGI: 3.48 µM
SK-OV-3 ovarian
  TGI: 3.06 µM
SK-MEL-2 melanoma
  TGI: 3.2 µM
CAKI-1 renal
  TGI: 2.95 µM
NCI/ADR-RES ovarian
  TGI: 3.55 µM
TK-10 renal
  TGI: 3.14 µM
MALME-3M melanoma
  TGI: 3.35 µM
MOLT-4 leukemia
  TGI: 3.98 µM
HCT-15 colon
  TGI: 3.38 µM
HCC-2998 colon
  TGI: 3 µM
EKVX NSCLC
  TGI: 3.26 µM
LOX IMVI melanoma
  TGI: 3.26 µM
HOP-62 NSCLC
  TGI: 3.09 µM
SNB-75 CNS
  TGI: 2.92 µM
A498 renal
  TGI: 3.13 µM
786-0 renal
  TGI: 3.21 µM
K-562 leukemia
  TGI: 2.97 µM
M14 melanoma
  TGI: 3.47 µM
HT29 colon
  TGI: 3.42 µM
HL-60(TB) leukemia
  TGI: 3.14 µM
SK-MEL-5 melanoma
  TGI: 3.05 µM
CCRF-CEM leukemia
  TGI: 2.97 µM
PC-3 prostate
  TGI: 3.11 µM
SNB-19 CNS
  TGI: 3.24 µM
COLO 205 colon
  TGI: 3.26 µM
OVCAR-3 ovarian
  TGI: 3.09 µM
OVCAR-4 ovarian
  TGI: 2.58 µM
HCT-116 colon
  TGI: 3.15 µM
MDA-MB-435
  TGI: 2.57 µM
DU-145 prostate
  TGI: 3.18 µM
SW-620 colon
  TGI: 3.06 µM
UO-31 renal
  TGI: 3.59 µM
SK-MEL-28 melanoma
  TGI: 3.3 µM
OVCAR-8 ovarian
  TGI: 3.46 µM
